This is an account of results in patent US20120015029A1, “DIRECT COMPRESSION FORMULATION AND PROCESS” (priority 2005, published 2012).

Series [1] in a line: Water sorption/desorption isotherm (dynamic vapor sorption, DVS-1). The settings on record: 25° C., 85% RH.
The nature of series [2]: Pharmacokinetic drug-drug interaction study vildagliptin 100 mg qd and metformin 1000 mg qd in patients with type 2 diabetes. The series is classed as in vivo, human. The settings on record: type 2 diabetes patients, steady state, vildagliptin 100 mg qd FMI tablets alone or with metformin 1000 mg qd, 5 days. The method, then: Subjects are given an end-of-study evaluation on the last day of period 2 (Day 20). For all treatment periods, subjects fasted for a minimum of 10 hours pre-dose to 4 hours post-dose. Subjects are considered to have completed the study when all safety and pharmacokinetic evaluations have been completed.
The pharmacokinetic profiles are illustrated in FIG. 5.

Each structure is given as a SMILES string.

With `N#C[C@@H]1CCCN1C(=O)CNC12CC3CC(CC(O)(C3)C1)C2` [Crystalline vildagliptin Form A, (S)-1-[(3-hydroxy-1-adamantyl)amino]acetyl-2-cyano-pyrrolidine], in series [1], the hygroscopicity result is on record as “only very slightly hygroscopic” and the moisture gain is recorded as 0.9%.
With `N#C[C@@H]1CCCN1C(=O)CNC12CC3CC(CC(O)(C3)C1)C2` [vildagliptin amorphous form, (S)-1-[(3-hydroxy-1-adamantyl)amino]acetyl-2-cyano-pyrrolidine], in series [1], the hygroscopicity result was “hygroscopic” and the moisture gain was 4.2%.
Regarding `N#C[C@@H]1CCCN1C(=O)CNC12CC3CC(CC(O)(C3)C1)C2` [vildagliptin, (S)-1-[(3-hydroxy-1-adamantyl)amino]acetyl-2-cyano-pyrrolidine], the Tmax median in series [2] came out at 1.00 h.
